# Assays:
# fibroblasts = experiment: Mechanical alteration of fibroblasts (cyclic stretching of coated polypropylene meshes); format: cell-based; conditions: cyclic stretching, day 7, day 21, 8 weeks, compared with native FA
# From the text: In order to simulate the effects of chronic shear forces on a healing wound, an in vitro model was established. A flat balloon was placed on the bottom of a Petri dish. A silicone sheet was placed above and sealed with the side of the Petri dish. Then a 3 mm agar layer was casted on top of the sheet. Commercially available polypropylene meshes for hernia repair (microporous mesh, a low-weight and macroporous mesh with absorbable polyglactin filaments, and a heavy-weight and microporous mesh) were placed on the agar plates and fixed at 4 points at the side of the Petri dish. This setting enabled stretching of the meshes by filling the balloons with air, which was performed at 10-second intervals using an automated pumping device. The model can be used to evaluate the effect of three-dimensional (3D) shear forces on cell growth during cell cultivation. Preincubated suspensions of fibroblasts (1.5×10(5) cells) in a culture medium (10% FCS) were added to the culture dishes and allowed to grow for 48 hours. Cyclic stretching was started at day 3. Histological analysis was performed from the central portions of the meshes at day 7, at day 21, and after 8 weeks. The scaffolds were detached from the culture plate and carefully rinsed. Then, they were cut into pieces, casted, and further processed for standard histology and immunohistology. Care was taken to achieve a cutting plane that was vertical to the surface plane of the meshes. Histological analysis evaluated the cellularity, the content of extra cellular matrix (ECM), and the magnitude of protein synthesis. Meshes were dip-coated with native and nitro fatty acids or left blank in the same manner as in example 1. The uncoated meshes served as controls.
# [1] = test system: Murine macrophage-like cells RAW 264.7 and murine L929 fibroblasts; experiment: Monocyte/fibroblast co-culture on coated surgical suture material; format: cell-based; conditions: dip-coated suture material, 24 and 48 hours; compared with native FA
# From the text: In order to determine immunoreactions to foreign material and its consequence on fibrogenesis, co-cultures of fibroblasts and monocytes were used. Commercially available suture materials (propylene, polyamide, and silk) were dip-coated with corresponding native and nitrated fatty acids. Untreated suture material served as control. Treated and untreated suture materials were out in small pieces and placed in a 96-well plate.
# Murine macrophage-like cells RAW 264.7 and murine L929 fibroblasts were cultured to a population density of 5×10(5) each. Cell suspensions were merged achieving a cellularity of approximately 2.5×10(5) cell/ml of each cell population which were added to the wells. The suture material samples were fully covered by the suspension. Wells were continuously and gently shaken throughout the incubation period.
# Supernatants were collected for assays after 24 and 48 hours and analyzed for profibrotic cytokines IL-13, IL-4, and IL-6, TGF-β1, collagen I.
# Cardiomyocytes = experiment: TGF-β1-inducible formation of extracellular matrix in cardiomyocytes under shear stress; format: cell-based; conditions: 10-100 μmol, shear stress up to 100 dyn/cm^2; compared with native FA
# Description: Characterizing features of the fibrous remodelling in the heart are accentuated expression and deposition of extracellular matrix proteins (ECM). This has been attributed to increased mechanical forces via autocrine release of transforming growth factor-beta (TGF-beta). […] An established cell culture model was used to investigate the effect of shear stress on cardiomyocytes. Cardiomyocytes were cultured and transferred to a matrigel substrate. Plates with confluenced cells were placed into a shear force injury device (SFID). The SFID design is based on a cone-and-plate construction which is a well-defined rheological model in which a homogenously distributed laminar flow over the surface of the cells is generated by a rotating cone. The conical surface is positioned above a stationary flat plate and the fluid medium between these two surfaces is set in motion by rotating the cone to create a uniform level of fluid shear stress throughout the entire surface of the cells cultured on the coverslips.
# A peak shear stress of 100 dyn/cm^2 could be applied without significant cell detachment enabling a maximum injury severity of 46%. Cells were exposed to FCS 1% without or with nitro-fatty acid, and the corresponding native fatty acid in a dosage range between 10 μmol and 100 μmol, 10 seconds before shear force application. Shear force peaks up to 100 dyn/cm^2 with a duration of 30 msec each with a repetition frequency of 60/minute were applied for 5, 10, 30 and 60 minutes. Thereafter the cell plates were washed and placed in FCS 1% for 24 hrs. The supernatant of the shear force investigation as well as that of the following culture phase was analysed. It could be shown that TGF-beta and ECM proteins (collagen I, fibronectin, laminin, elastin) increased after treatment in the control groups.
# [2] = test system: female Sprague-Dawley rats; experiment: Fibrogenesis in an in-vivo model of soft implant implantation; set-up: species or system rat; conditions: subcutaneous implants, 120 days, compared with native FA
# Description: Silicone bag-gel miniprostheses (POLYTECH Health & Aesthetics GmbH, Dieburg, Germany) having a diameter of 2 cm and a volume of approximately 2 ml were used. […] The experimentally used implant models had two small tags which allowed the implants to be suspended during the coating procedures.
# Each implant was treated in the following manner: cleaning by sonication for 2 min each in the following sequence of solvents: acetone, toluene, acetone, ethanol, and water. Implants were exposed to Piranha solution for 60 min and rinsed with deionized water. They were then immersed in a 20% aqueous solution of ammonium fluoride for 45 min to obtain a hydrogen-passivated Si surface. The ammonium fluoride solution was sparged with nitrogen for 15 min to remove dissolved oxygen. Prepared implants were transferred to a glass chamber filled with an inert atmosphere where they were suspended so that no part of their surface came in contact with the container. The container was filled with a 1-hexadecene solution and heated at 150° C. at a pressure of 2 Torr for 120 min. Prepared implants were cleaned in the following sequence of solvents: acetone, ethanol, and water. Formation of self assembled monolayer was controlled by measuring surface hydrophobicity; the contact angle was about 105°. Dry implants suspended in the container were then bathed in an ethanolic solution of oleic acid or nitro-oleic acid at a temperature of 40° C. for 120 min. Thereafter, the solution was allowed to run out slowly through an outlet at the bottom of the container. The emptying container was filled with inert gas in which the samples were maintained for 24 hours. Then samples were bathed three times in an ethanolic solution, followed by a final rinsing with sterile water. After drying, the container with the prepared implant was sterilized using ethylene oxide and stored at 20° C.
# For in vivo testing, 24 uncoated and 24 coated implants were investigated in 24 female Sprague-Dawley rats (190-230 g). In the anesthetized animals, bilateral dorsal pockets in the subcutaneum were created by blunt dissection through paired paravertebral incisions. Each animal received one coated implant and one control implant on opposite sides, alternating sides on successive animals. Animals were housed and fed according to institutional standards for 120 days. Animals were sacrificed with chloroform. The implants and the adhering tissue were extracted by en bloc resection. The implants were cannulated and the liquid silicone gel was replaced by paraffin. Thereafter, the complete tissue block was prepared by standard means of histology, and stained with H&E or Masson's trichrome.
# Further: key: 0: not superior to native FA (control); +: Superior to native FA; ++: superior to both; +++: outstanding effect.
Compound,Relative effect on fibroblasts under mechanical alteration (fibroblasts),Relative effect on profibrotic cytokines and collagen I on suture material [1],Relative efficacy to suppress TGF-beta and ECM proteins in cardiomyocytes (Cardiomyocytes),Relative effect of surface coating on fibrogenesis around silicone implants [2]
5-nitro-eicosatrienoic acid [compound 4],+,+,+,
"9,10-nitro-cis-oleic acid [compound 10]",++,+++,++,++
"9,10-nitro-trans-oleic acid [compound 15]",+,+,+,+
"CCCCCCCC/C=C(/CCCCCCCC(=O)O)[N+](=O)[O-] [compound 1, 9-nitro cis-oleic acid]",+++,++,++,++
"CCCCC/C=C\C/C(=C\CCCCCCCC(=O)O)[N+](=O)[O-] [compound 2, 10-nitro-cis-linoleic acid]",+++,+++,++,++
"CCCCCCCC/C(=C/CCCCCCCC(=O)O)[N+](=O)[O-] [compound 3, 10-nitro-cis-oleic acid]",++,++,++,++
"CCCCC/C=C(/C/C=C\C/C=C\C/C=C\C/C=C\CCC(=O)O)[N+](=O)[O-] [compound 5, 16-nitro-all-cis-4,7,10,13,16-docosapentaenoic acid]",++,+,+,
"CC/C=C\C/C=C\C/C=C(/CCCCCCCC(=O)O)[N+](=O)[O-] [compound 6, 9-nitro-all-cis-9-12,15-octadecatrienoic acid]",++,+,+++,++
"CC/C=C\C/C=C\C/C(=C/C/C=C\C/C=C\CCCCCC(=O)O)[N+](=O)[O-] [compound 7, 14-nitro-all-cis-7,10,13,16,19-docosapentaenoic acid]",+,+,+,
"CCCCCCCC/C=C(/CCCCCCCCCCCCCC(=O)O)[N+](=O)[O-] [compound 8, 15-nitro-cis-15-tetracosenoic acid]",+,+,+,+
"CCCCCCCC/C=C(\CCCCCCCC(=O)O)[N+](=O)[O-] [compound 9, 9-nitro-trans-oleic acid]",+,+,+,+
"CCCCC=C(C=CC=CCCCCCCCC(=O)O)[N+](=O)[O-] [compound 11, 13-nitro-octadeca-9,11,13-trienoic acid]",+,0,+,+
"CCCCCCCC/C(=C\CCCCCCCC(=O)O)[N+](=O)[O-] [compound 12, 10-nitro-trans-oleic acid]",+,+,,
CCCCCC/C=C(/CCCCCCCC(=O)O)[N+](=O)[O-] [compound 13],+,+,,+
"CCCCCC=CCC=C(CC=CCC=CCCCC(=O)O)[N+](=O)[O-] [compound 14, 11-nitro-5,8,11,14-eicosatrienoic acid]",0,+,+,+
"CCCCCC/C=C(\CCCCCCCC(=O)O)[N+](=O)[O-] [compound 16, 9-nitro-9-trans-hexadecenoic acid]",++,+,,0
"CCCCCCCC/C=C(/CCCCCCCCCCCC(=O)O)[N+](=O)[O-] [compound 17, 13-nitro-cis-13-docosenoic acid]",+,+,,
"CCCCC/C=C(/C/C=C\C/C=C(/C/C=C\CCCC(=O)O)[N+](=O)[O-])[N+](=O)[O-] [compound 18, 8,14-nitro-cis-5,8,11,14-eicosatetraenoic acid]",+,0,,
"CCC=CCC=C(CC=CCC=CCC=CCC=C(CCC(=O)O)[N+](=O)[O-])[N+](=O)[O-] [compound 19, 4,16-nitro-docosahexaenoic acid]",++,+,,

# — patent US20130039956A1, “USE OF NITROCARBOXYLIC ACIDS FOR THE TREATMENT, DIAGNOSIS AND PROPHYLAXIS OF AGGRESSIVE HEALING PATTERNS” (priority 2010, published 2013)
